Test results: patent US10550388B2, “Targeting pleiotrophin signaling to limit high-grade glioma invasion” (The Board of Trustees of the Leland Stanford Junior …, priority 2017, dated 2020)
Entries after “also recorded” stand apart in the source; their conditions may differ.

Assays:
[1] = test system: SU-DIPG-XIII FL cells; assay: Matrigel invasion assay (Boyden chamber) of DIPG cells; format: cell-based, human; conditions: DIPG cells expressing the shRNA; for DIPG invasion toward SVZ hNPC CM or the PTN complex: vs scrambled control; for baseline DIPG invasion toward unconditioned hNPC media: vs scrambled shRNA
Protocol: To test for chemoattraction and invasion toward neural precursor cell conditioned media or another candidate chemoattractant, a single-cell suspension of 100,000 DIPG cells in Tumor Stem Media (TSM) base (with B27 (−A) and heparin, without growth factors) was seeded in the top inserts of BioCoat growth factor reduced Matrigel invasion chambers (Corning, Bedford, Mass.), after rehydration of the inserts. Chemoattractant media was added to the bottom of the chamber. All conditions were plated in triplicate. After 72 hours, media was aspirated, and the non-invading cells on top of the layer of Matrigel were scrubbed off. The invading cells were fixed in 4% paraformaldehyde and then stained with 0.1% crystal violet in 10% methanol in distilled water. The number of invading cells was quantified by the intensity of the crystal violet dye on the invading side of the Matrigel. The dye was collected in 10% acetic acid, and absorbance was measured at 595 nm.
To test the ROCK or HSP90 inhibitors in the Matrigel invasion assay, the inhibitors were added to the suspension of glioma cells in TSM base (with B27 (−A) and heparin) seeded in the top inserts at the appropriate concentrations, and neural precursor cell conditioned media was plated in the bottom chambers. The rest of the procedure was performed as described above.

[2] = test system: SU-DIPG-XIII FL cells; assay: CellTiter-Glo cell viability assay; format: cell-based, human; conditions: base media without growth factors, vs scrambled control or no shRNA
Protocol: To assess cell viability, 5,000 DIPG cells per well were seeded in base media or full growth media in a 96-well plate. Inhibitors were added at the appropriate concentrations. After 72 hours, CellTiter-Glo reagent 2.0 was added at a 1:1 ratio, and cells were lysed. Luminescence was measured after stabilization of signal for 10 minutes at room temperature.

[3] = test system: PTPRZ1; assay: Knockdown of PTPRZ1 in DIPG cells (qPCR, Western blot); format: cell-based, human; conditions: vs scrambled shRNA control or no shRNA; for PTPRZ1 gene expression: qPCR
Protocol: Samples were run on Bio-Rad Mini-Protean TGX precast gels (Bio-Rad, Hercules, Calif.), and the protein was transferred onto polyvinylidene fluoride (PVDF) membranes. Membranes were blocked with 5% bovine serum albumin (BSA) in TBST for 1 hour, and incubated in primary antibodies diluted in 1% BSA/TBST overnight at 4° C. Primary antibodies used were: mouse anti-pleiotrophin (1:100; Santa Cruz Biotechnology, Santa Cruz, Calif.), goat anti-SPARC (1:100; R&D Systems, Minneapolis, Minn.), goat anti-SPARCL1 ([…]; R&D Systems, Minneapolis, Minn.), rabbit anti-HSP90B (GeneTex, Irvine, Calif.), rabbit anti-GRP78 (1:500, Abcam, Cambridge, Mass.), rabbit anti-PTPRZ (Thermo Fisher, Waltham, Mass.), and rabbit beta-actin (1:2000; Cell Signaling, Danvers, Mass.). Secondary antibodies conjugated to horseradish peroxidase (HRP) were added for 1 hour at room temperature. Secondary antibodies used were: goat anti-rabbit IgG-HRP (Cell Signaling, Danvers, Mass.), horse anti-mouse IgG-HRP (Cell Signaling, Danvers, Mass.), and donkey anti-goat IgG-HRP (Santa Cruz Biotechnology, Santa Cruz, Calif.). Proteins were visualized using Clarity Western ECL Substrate (Bio-Rad, Hercules, Calif.).
Cells or tissue were lysed and homogenized in TRIzol Reagent (Life Technologies, Carlsbad, Calif.) and RNA was extracted according to reagent protocol. RNA was treated with dsDNase, and cDNA was synthesized using Thermo Scientific Maxima First Strand cDNA Synthesis Kit for RT-qPCR with dsDNase (Thermo Fisher Scientific K1671). RT-PCR was performed on Eppendorf Mastercycler Realplex2 using Universal SYBR Green Supermix (BioRad, Hercules, Calif.). Differential expression was determined using the deltaCt method. Primers used were as follows: […]
For lentiviral infection, DIPG cells or neural precursor cells were exposed to shRNA-expressing lentivirus for 16 hours. Puromycin was added 48 hours after infection to select for virally infected cells. After removal of puromycin, shRNA-treated neural precursor cells were grown for 7 days (with addition of media on day 3-4) for generation of conditioned media. […]

[4] = test system: SU-DIPG-XIII FL cells; assay: Orthotopic xenograft of PTPRZ1 knockdown DIPG cells; format: in vivo, NSG mice; conditions: knockdown cells xenografted to the pons, vs scrambled shRNA control cells; for DIPG cells invading the SVZ: 8 weeks following xenograft
Protocol: (§1) NSG mice at age P34-36 were orthotopically xenografted with SU-DIPG-XIII frontal lobe CMV-GFP-luciferase cells, in a similar procedure to as previously described (Grasso et al., supra; Venkatesh et al. (2015) Cell 161, 803-816). Briefly, a single-cell suspension of SU-DIPG-XIII frontal lobe CMV-GFP-luciferase cells at passage 16-19 was prepared in sterile HBSS immediately before beginning the xenograft procedure. 600,000 cells in 3 μL were stereotactically injected into the pons of the left hemisphere of NSG mice, through a 31-gauge burr hole. Stereotactic coordinates used were: 1 mm lateral to midline, 0.8 mm posterior to lambda suture, and 5 mm deep. Cells were injected at a rate of 0.4 μL/min using a digital pump and a 31-gauge Hamilton syringe. After infusion of cells, the syringe needle was kept in place for 2 minutes, and then withdrawn manually at a rate of 0.875 mm/min to minimize the backflow of cells.
(§2) Mice were imaged using an IVIS Spectrum to ensure tumor engraftment and monitor tumor size. Mice were anesthetized under 1% isoflurane, intraperitoneally injected with luciferin (15 mg/kg), and imaged for bioluminescence every minute until the peak total flux was reached.
For lentiviral infection, DIPG cells or neural precursor cells were exposed to shRNA-expressing lentivirus for 16 hours. Puromycin was added 48 hours after infection to select for virally infected cells. After removal of puromycin, shRNA-treated neural precursor cells were grown for 7 days (with addition of media on day 3-4) for generation of conditioned media. After removal of puromycin, shRNA-treated DIPG cells were grown for at least one passage before experimental use.

[5] = test system: RhoA; assay: G-LISA RhoA activation assay in DIPG cells; format: cell-based, human; conditions: DIPG cells expressing the shRNA exposed to SVZ hNPC CM or the PTN complex; vs scrambled shRNA
Protocol: (§3) SU-DIPG-XIII frontal lobe cells were starved in TSM base (without B27 (−A) supplement, heparin, or growth factors) for 48 hours prior to treatment. After treatment, cells were lysed in the RhoA activation assay kit cell lysis buffer (Cytoskeleton, Denver, Colo.). Lysates were incubated on ice for 1 minute, clarified by centrifugation at 10,000×g, 4° C. for 1 minute, and the supernatants were snap-frozen and stored immediately at −80° C. Protein concentrations were measured by the BCA protein assay (Thermo Scientific, Waltham, Mass.), and samples were diluted to 0.5 mg/mL by the addition of cell lysis buffer.
RhoA activation assays were performed using the G-LISA RhoA absorbance-based activation assay (Cytoskeleton, Denver, Colo.). Lysate samples were incubated in a 96-well plate with pre-linked Rho GTP-binding protein for 30 minutes at 4° C. shaking at 400 rpm. Wells were incubated in anti-RhoA primary antibody (1:250) at room temperature for 45 minutes shaking at 400 rpm. Secondary HRP-labeled antibody (1:62.5) was added at room temperature for 45 minutes shaking at 400 rpm. Results were visualized by addition of HRP detection reagents for 12 minutes at 37° C., and the absorbance was read at 490 nm. All assays were performed in triplicate.

[6] = test system: ROCK; assay: Rho-associated kinase (ROCK) activity assay in DIPG cells; format: cell-based, human; conditions: DIPG cells expressing the shRNA exposed to SVZ hNPC CM or the PTN complex; vs scrambled shRNA
Protocol: as §3
ROCK activation assays were performed using the Rho-associated kinase (ROCK) activity assay (Millipore, Bedford, Mass.). Cell lysates were incubated in wells of a myosin phosphatase target subunit 1 (MYPT1) pre-coated 96-well plate, for 30 minutes at 30° C. with moderate shaking. Wells were incubated in anti-phospho-MYPT1(Thr696) primary antibody (1:1000) for 1 hour with moderate shaking. Goat anti-rabbit IgG HRP secondary antibody (1:2000) was added for 1 hour with moderate shaking. Results were visualized with TMB/E substrate, incubating in the dark for 10 minutes, and absorbance was read at 450 nm. All assays were performed in triplicate.

[7] = test system: SU-DIPG-XIII FL cells; assay: shRNA-expressing lentivirus injected into the SVZ of orthotopically xenografted mice; format: in vivo, NSG mice; conditions: vs scrambled shRNA control; for DIPG cells invading the SVZ: 16 weeks following pontine xenograft
Protocol: as §1
(§4) Mice used for shRNA lentivirus studies received shRNA-expressing lentivirus in the SVZ at P27-29 and DIPG cells in the left pons at P34-36. For lentiviral injections, 2 μL of shRNA-expressing lentivirus were stereotactically injected into the SVZ. Stereotactic coordinates used were: 1.3 mm lateral to midline, 0.1 mm posterior to bregma suture, and 2 mm deep. Virus was injected and the needle was withdrawn according to the same procedure as described above.
as §2
For quantification of DIPG invasion of the SVZ after knock down of targets in the SVZ, 5 NSG mice per group were injected with shRNA-expressing lentivirus in bilateral SVZs and orthotopically xenografted with SU-DIPG-XIII FL in the left pons. Mice were perfused for analysis 16 weeks after xenograft. A 1:6 series of coronal slices from each mouse brain was immunostained and imaged, and the number of GFP^+ HNA^+ glioma cells within 200 μm of the lateral ventricles in all slices containing lateral ventricles was manually counted.
For quantification of neural stem/precursor cells in the SVZ after knock down of PTN in the SVZ, a 1:6 series of coronal slices from each mouse was immunostained and imaged, and the number of Sox2^+ neural stem/precursor cells in a 20×Z-stack was manually counted. The density of Sox2^+ cells was calculated as cells/mm^3.

[8] = test system: HSP90B; assay: Knockdown of HSP90B expression in the mouse SVZ; format: in vivo; conditions: lentivirus injected into the SVZ; vs scrambled shRNA control
Protocol: as §4
Mice were intraperitoneally injected with Avertin (tribromoethanol) for anesthesia, and then transcardially perfused with 20 mL of ice-cold PBS. Brains were dissected out and fixed in 4% paraformaldehyde in PBS overnight at 4° C., and were then transferred to 30% sucrose in PBS for cryoprotection. Brains were embedded in Tissue-Tek O.C.T. (Sakura, Torrance, Calif.). Brains from mice older than P10 were sliced into 40 μm coronal or sagittal sections using a sliding microtome (Microm HM450; Thermo Scientific, Waltham, Mass.). Brains from mice age P0 to P10 were sliced into 25 μm coronal sections using a cryostat (Leica Biosystems CM3050 S; 1058 Wetzlar, Germany). For immunohistochemistry, a 1 in 6 series of 25 μm or 40 μm sections was incubated in blocking solution (3% normal donkey serum, 0.3% Triton X-100 in TBS) at room temperature for 1 hour. […]

[9] = listed as shRNA lentivirus targeting PTPRZ1
[10] = listed as shRNA-expressing lentivirus targeting the HSP90B1 gene

| Substance | DIPG invasion toward SVZ hNPC CM or the PTN complex [1] | DIPG invasion toward SVZ hNPC CM or the PTN complex [1, 9] | baseline DIPG invasion toward unconditioned hNPC media [1] | baseline DIPG invasion toward unconditioned hNPC media [1, 9] | cell viability of DIPG cells expressing the shRNA [2] | cell viability of DIPG cells expressing the shRNA [2, 9] | PTPRZ protein levels ([3]; Western blot) | PTPRZ1 gene expression [3] | PTPRZ1 gene expression [3, 9] | DIPG cells invading the SVZ [4] | DIPG cells invading the SVZ [4, 9] | decrease of total tumor size (engraftment), bioluminescent signal on initial IVIS imaging [4] | tumor growth over time [4] | RhoA activation [5] | ROCK activation [6] | DIPG cells invading the SVZ [7] | DIPG cells invading the SVZ [7, 10] | tumor engraftment (bioluminescent flux) ([7]; listed as shRNA lentivirus targeting HSP90B1) | tumor engraftment (bioluminescent flux) [7, 10] | HSP90B expression in the SVZ [8] |
| --- | --- | --- | --- | --- | --- | --- | --- | --- | --- | --- | --- | --- | --- | --- | --- | --- | --- | --- | --- | --- |
| PTPRZ1 shRNA: lentivirus-expressed shRNA against human PTPRZ1, Sigma TRCN0000356374, SEQ ID NO: 13 (CCGGATACCTAAGTCTTCGTTAATACTCGAGTATTAACGAAGACTTAGGTATTTTTTG) | partial abrogation of invasion | partially abrogates DIPG invasion | substantially decreases baseline invasion | decrease in baseline DIPG invasion | mildly decreases cell viability | mild decrease in cell viability | effective knock down | Robust shRNA-mediated knockdown of PTPRZ1 expression | effective knock down of PTPRZ1 gene expression | significantly fewer cells expressing PTPRZ1 shRNA reached the SVZ | fewer DIPG cells with knockdown of PTPRZ1 invaded the SVZ | 10 fold | rate of growth was similar | abrogation of RhoA and ROCK activation; also recorded: decreased activation of RhoA and ROCK | abrogation of RhoA and ROCK activation; also recorded: decreased activation of RhoA and ROCK | – | – | – | – | – |
| sh-HSP90B1: lentivirus-expressed shRNA against mouse HSP90B1, Sigma TRCN0000071925, SEQ ID NO: 12 (CCGGGCTATTCAGTTGGATGGGTTACTCGAGTAACCCATCCAACTGAATAGCTTTTTG) | – | – | – | – | – | – | – | – | – | – | – | – | – | – | – | fewer orthotopically xenografted GFP^+ HNA^+ SU-DIPG-XIII FL cells invaded the SVZ | fewer DIPG cells invading the SVZ | equivalent | no effect on initial tumor engraftment | low HSP90B expression after knockdown |
